In US5451599A, “Complex salts of hematoporphyrin and of its derivatives, their synthesis, and therapeutic agent” (Wojskowa Akademia Techniczna im. Jaroslawa Dabrowskiego, priority 1991, dated 1995):

What was measured:
[1] = test system: HEp-2 (larynx cancer cells); test: 48 h incubation with the salts: cell fluorescence, living cells, multiplication coefficient (Table 3); assay type: cell-based, Human; settings: 48 hs, 50 mcg/ml
Procedure: (§1) New compounds of formula 1 were tested on cell lines. Use was made of 9 different neoplastic cell lines which were incubated for 48 hs with various new salts of protoporphyrin and with a new salt of the conventionally applied HpD preparation/hematoporphyrin derivatives/obtained according to Lipson et al. All compounds were used in the form of aqueous solutions, at a concentration of 50 mcg/ml. Determination was made of:
(§2) 1/ Cell fluorescence /F/: after 48 hs incubation, the cells were washed away, the intensity of fluorescence was measured in a fluorescence microscope and was expressed on an arbitrary scale of 0-4 scores;
(§3) 2/ Percentage of living cells /P %/ after 48 hs incubation;
(§4) 3/ Cell multiplication coefficient /M/ in the presence of different preparations, expressed as: [formula]
Hep-2 larynx cancer cells

[2] = test system: T-47D (breast cancer cells); test: as above; assay type: cell-based, Human; settings: 48 hs, 50 mcg/ml
Procedure: as §1, §2, §3, §4
T-47D breast cancer cells

[3] = test system: GR (GRMT/F6, mammary gland cancer cells of GR-strain mice); test: 48 h incubation with the salts: cell fluorescence, living cells, multiplication coefficient (Table 2); assay type: cell-based, Murine; settings: 48 hs, 50 mcg/ml
Procedure: as §1, §2, §3, §4
GRMT/F6 mammary gland cancer cells of GR-strain mice

[4] = test system: KB (oral cavity cancer cells); test: as above; assay type: cell-based, Human; settings: 48 hs, 50 mcg/ml
Procedure: as §1, §2, §3, §4
KB oral cavity cancer cells

[5] = test system: Mm (Mm5MT/C1, mammary gland cancer cells of C3H-strain mice); test: 48 h incubation with the salts: cell fluorescence, living cells, multiplication coefficient (Table 3); assay type: cell-based, Murine; settings: for Cell fluorescence /F/ / Cell multiplication coefficient /M/ / Percentage of living cells /P %/: Mm, 48 hs, 50 mcg/ml
Procedure: as §1, §2, §3, §4
mammary gland cancer cells of C3H-strain mice

[6] = test system: HBT-39/w (breast cancer cells); test: 48 h incubation with the salts: cell fluorescence, living cells, multiplication coefficient (Table 2); assay type: cell-based, Human; settings: 48 hs, 50 mcg/ml
Procedure: as §1, §2, §3, §4

[7] = test system: MA-104 (Rhesus monkey embryo kidney cancer cells); test: 48 h incubation with the salts: cell fluorescence, living cells, multiplication coefficient (Table 1); assay type: cell-based; settings: 48 hs, 50 mcg/ml
Procedure: as §1, §2, §3, §4

CL = test: as above; assay type: cell-based; settings: 48 hs, 50 mcg/ml
Procedure: as §1, §2, §3, §4

PZ = test: as above; assay type: cell-based; settings: 48 hs, 50 mcg/ml
Procedure: as §1, §2, §3, §4

[8] = test system: Hela (cervix uteri cancer cells); test: as above; assay type: cell-based, Human; settings: 48 hs, 50 mcg/ml
Procedure: as §1, §2, §3, §4

Molecule | Cell fluorescence /F/ [1] | Cell multiplication coefficient /M/ [1] | Percentage of living cells /P %/ [1] [%] | Cell fluorescence /F/ [2] | Cell multiplication coefficient /M/ [2] | Percentage of living cells /P %/ [2] [%] | Cell fluorescence /F/ [3] | Cell multiplication coefficient /M/ [3] | Percentage of living cells /P %/ [3] [%] | Cell multiplication coefficient /M/ [4] | Percentage of living cells /P %/ [4] [%] | Cell fluorescence /F/ [5] | Cell multiplication coefficient /M/ [5] | Percentage of living cells /P %/ [5] [%] | Cell fluorescence /F/ [6] | Cell multiplication coefficient /M/ [6] | Percentage of living cells /P %/ [6] [%] | Cell fluorescence /F/ [7] | Cell multiplication coefficient /M/ [7] | Percentage of living cells /P %/ [7] [%] | further results
CC1=C(CCC(=O)O)c2cc3[nH]c(cc4nc(cc5[nH]c(cc1n2)c(C(C)NC(CCC(=O)O)C(=O)O)c5C)C(C(C)NC(CCC(=O)O)C(=O)O)=C4C)c(C)c3CCC(=O)O.N=C(N)NCCC[C@H](N)C(=O)O.N=C(N)NCCC[C@H](N)C(=O)O (stereo not drawn) [PP/Glu/2 /Arg/2, l-arginine di/N-glutamyl/-protoporphyrinate] | ++++ | 0,08 | 15 | +++ | 0,80 | 49 | + | 0,75 | 75 | 0,08 | 8 | +++ | 0,70 | 76 | + | 0,73 | 66 | - | 0,16 | 15 | Cell fluorescence /F/ [4]: ++++; activity in studies of the Mm5MT/C1 cell line (in words) ([5]; mammary gland cancer of C3H mice): least effective against this type of neoplasm; Cell fluorescence /F/ (CL): -; Cell multiplication coefficient /M/ (CL): 0,45; Percentage of living cells /P %/ (CL): 45%; Cell fluorescence /F/ (PZ): +; Cell multiplication coefficient /M/ (PZ): 0,15; Percentage of living cells /P %/ (PZ): 15%; Cell fluorescence /F/ [8]: ++; Cell multiplication coefficient /M/ [8]: 0,16; Percentage of living cells /P %/ [8]: 33%
CSCCC(NC(C)C1=C(C)c2cc3[nH]c(cc4nc(cc5[nH]c(cc1n2)c(C)c5C(C)NC(CCSC)C(=O)O)C(C)=C4CCC(=O)O)c(CCC(=O)O)c3C)C(=O)O.N=C(N)NCCC[C@H](N)C(=O)O.N=C(N)NCCC[C@H](N)C(=O)O (stereo not drawn) [PP/Met/2 /Arg/2, l-arginine di/N-methionyl/-protoporphyrinate] | +++ | 0 | 0 | +++ | 0,10 | 10 | ++++ | 0,22 | 25 | 0,12 | 5 | ++++ | 0,08 | 8 | ++++ | 0,08 | 8 | ++ | 0,33 | 22 | Cell fluorescence /F/ [4]: ++; Cell fluorescence /F/ (CL): +; Cell multiplication coefficient /M/ (CL): 0; Percentage of living cells /P %/ (CL): 0%; Cell fluorescence /F/ (PZ): +; Cell multiplication coefficient /M/ (PZ): 0,08; Percentage of living cells /P %/ (PZ): 8%; Cell fluorescence /F/ [8]: ++++; Cell multiplication coefficient /M/ [8]: 0,05; Percentage of living cells /P %/ [8]: 5%
CC1=C(CCC(=O)O)c2cc3[nH]c(cc4nc(cc5[nH]c(cc1n2)c(C(C)NC(CO)C(=O)O)c5C)C(C(C)NC(CO)C(=O)O)=C4C)c(C)c3CCC(=O)O.N=C(N)NCCC[C@H](N)C(=O)O.N=C(N)NCCC[C@H](N)C(=O)O (stereo not drawn) [PP/Ser/2 /Arg/2, l-arginine di/N-seryl/-protoporphyrinate] | + | 0,50 | 25 | +++ | 0,60 | 40 | + | 0,12 | 12 | 0 | 0 | + | 0,37 | 37 | ++ | 0,50 | 33 | - | 0,16 | 0 | Cell fluorescence /F/ [4]: ++; Cell fluorescence /F/ (CL): +; Cell multiplication coefficient /M/ (CL): 0; Percentage of living cells /P %/ (CL): 0%; Cell fluorescence /F/ (PZ): ++; Cell multiplication coefficient /M/ (PZ): 0,02; Percentage of living cells /P %/ (PZ): 2,5%; Cell fluorescence /F/ [8]: ++; Cell multiplication coefficient /M/ [8]: 0,50; Percentage of living cells /P %/ [8]: 55%
CC1=C(CCC(=O)O)c2cc3[nH]c(cc4nc(cc5[nH]c(cc1n2)c(C(C)NC(Cc1c[nH]c2ccccc12)C(=O)O)c5C)C(C(C)NC(Cc1c[nH]c2ccccc12)C(=O)O)=C4C)c(C)c3CCC(=O)O.N=C(N)NCCC[C@H](N)C(=O)O.N=C(N)NCCC[C@H](N)C(=O)O (stereo not drawn) [PP/Trp/2 /Arg/2, l-arginine di/N-tryptophanyl/-protoporphyrinate] | +++ | 0,15 | 15 | + | 0,13 | 13 | +++ | 0,62 | 62 | 0,21 | 21 | +++ | 0,33 | 11 | ++++ | 0,11 | 18 | + | 0,25 | 25 | Cell fluorescence /F/ (CL): -; Cell multiplication coefficient /M/ (CL): 0,50; Percentage of living cells /P %/ (CL): 50%; Cell fluorescence /F/ (PZ): +; Cell multiplication coefficient /M/ (PZ): 0,50; Percentage of living cells /P %/ (PZ): 50%; Cell fluorescence /F/ [8]: +++; Cell multiplication coefficient /M/ [8]: 0,62; Percentage of living cells /P %/ [8]: 62%
l-arginine di/N-arginyl/-protoporphyrinate [PP/Arg/2 /Arg/2] | + | 0,14 | 5 | +++ | 0,40 | 40 | +++ | 0,12 | 12 | 0,16 | 16 | +++ | 0,38 | 12 | ++++ | 0,28 | 28 | ++ | 0,42 | 31 | Cell fluorescence /F/ [4]: +; Cell fluorescence /F/ (CL): ++; Cell multiplication coefficient /M/ (CL): 0,03; Percentage of living cells /P %/ (CL): 4%; Cell fluorescence /F/ (PZ): +; Cell multiplication coefficient /M/ (PZ): 0,10; Percentage of living cells /P %/ (PZ): 10%; Cell fluorescence /F/ [8]: ++++; Cell multiplication coefficient /M/ [8]: 0,28; Percentage of living cells /P %/ [8]: 11%
